Tested on: SD rats
Experiment: Oral Glucose Tolerance Test (OGTT) in SD rats: blood glucose excursion AUC and urine glucose excretion
Assay type: in vivo, rat
Conditions: mean ± SE; for response vs control in vivo at 1 mg/kg / response vs control in vivo at 10 mg/kg: Rattus norvegicus, 2 h, n = 8, read-out: 120-min Blood Glucose AUC vs Vehicle (%); for Urine Glucose Excretion (g/0-4 hr): n = 8
Protocol: Biological Example 2: In Vivo Assay
Oral Glucose Tolerance Test (OGTT) in SD Rats
Overnight fasted SD rats were allocated into vehicle or test compound treatment groups based on their body weights (n=8 in each group). The animals were orally dosed with vehicle or test compound at a volume of 10 ml/kg at 30-minute prior to OGTT. The animals then received an OGTT challenge with 2 g/kg (50% glucose solution at the volume of 4 ml/kg, orally). The animals were immediately transferred into metabolic cages after they were dosed with the glucose. Blood glucose levels were measured at 0 (pre-OGTT), 30, 60, and 120 minutes after OGTT using one-touch Glucometer. Blood glucose excursion AUC (area under the curve of blood glucose) was determined from the blood glucose levels measured at the timepoints.
Table 9 below, presents the measured efficacy of the test compound(s), expressed as the percentage (%) of blood glucose AUC vs that in vehicle group. The data is interpreted such that, the smaller the percentage of blood glucose AUC of compound vs vehicle, the greater the efficacy of the test compound. Urine volume and urine glucose concentrations (tested by using Olympus system with Genzyme diagnostics assay reagent) were measured to determine the urine glucose excretion (UGE) in 4-hr period after OGTT (0-4 hours).

Row | Structure (SMILES) | response vs control in vivo at 1 mg/kg (oral dose 1 mg/kg) [%] | response vs control in vivo at 10 mg/kg (oral dose 10 mg/kg) [%] | Urine Glucose Excretion (g/0-4 hr) (oral dose 1 mg/kg) | Urine Glucose Excretion (g/0-4 hr) (oral dose 10 mg/kg)
1 | COc1cc(O)c([C@@H]2O[C@H](CO)C(F)(F)[C@H](O)[C@H]2O)cc1Cc1ccc2c(c1)CCCO2 [Compound 44, (2S,3R,4R,6R)-2-(5-(chroman-6-ylmethyl)-2-hydroxy-4-methoxyphenyl)-5,5-difluoro-6-(hydroxymethyl)tetrahydro-2H-pyran-3,4-diol] | 61.7 ± 2.1 | 39.3 ± 1.7 | 0.002 ± 0.001 | 0.2 ± 0.02
2 | COc1ccc(Cc2cc([C@@H]3O[C@H](CO)C(F)(F)[C@H](O)[C@H]3O)c(O)cc2Cl)cc1 [Compound 81, (2S,3R,4R,6R)-2-(4-chloro-2-hydroxy-5-(4-methoxybenzyl)phenyl)-5,5-difluoro-6-(hydroxymethyl)-tetrahydro-2H-pyran-3,4-diol] | 77.5 ± 2.4 | 41 ± 2.7 | 0.099 ± 0.037 | 0.276 ± 0.032
